Measured values taken from US20150050410A1, “COMPOUNDS, COMPOSITIONS, AND METHODS FOR MODULATING SWEET TASTE” (Chromocell Corporation, priority 2013, published 2015).

Experiments:
Type in all cases: in vivo
[1] = system: perception of the sweet taste of an aqueous solution of sweetener in humans; test: Two-alternative forced choice "sip and spit" method (2AFC); settings: for Fold increase in perceived sweetness: positive control conc. / test sample conc.
Description: The taste test panelists used in the Examples 1-3 were selected using a sensory acuity screening program. Candidate taste panelists were recruited, with prescreening and personal interviews, and were assessed and for their ability to detect, recognize and differentiate basic taste attributes or mixtures thereof as part of a standardized acuity test. This included basic tastes of sweet, sour, salty, bitter and umami, as well as having the capacity to focus on specific aspects of sensory character such as ranking the various tastes perceived and identifying the basic tastes presented at threshold levels.
The effect of the test compounds on the perception of the sweet taste of an aqueous solution of sweetener in humans was evaluated using a two-alternative forced choice “sip and spit” method (2AFC).
(§1) The aqueous sweetener solutions were prepared by adding, fructose, sucrose or glucose (by weight), to water to achieve the desired concentration.
Compounds were first prepared as a 500-fold concentrated stock solution in 100% ethanol. These concentrated stocks were then added to the aqueous sweetener solutions to result in a final ethanol concentration of 0.2%. The control (positive and negative) samples were also normalized to 0.2% ethanol. This level of ethanol was not seen to contribute any perceived sweetness.
The 2AFC test used for compound evaluation was a blind and randomized test where taste panelists (n=15) evaluate a pair of sweetener solutions at a time one sample contains aqueous sweetener solution plus compound (i.e. test) while the other contains aqueous sweetener solution at higher concentration without compound (i.e. positive control). Each test sample was compared against a positive control. For example, if the test sample contained 1× sweetener concentration with compound (e.g. 5% sucrose with compound), the positive control sample contained a 1.1× sweetener concentration (e.g. 5.5% sucrose without compound).
Panelists were instructed not to eat or drink (except water) for at least 1 h before the test. During the test, panelists were instructed to sip each sample, swirl it around their mouth and then expectorate. After tasting each sample in the pair, panelists were instructed to record the sample that is “sweeter” in taste. Panelists cleansed their palates by rinsing with water, eating a cracker and waiting for an interval of about 5 minutes. Each pair was tasted twice. All samples were tasted at ambient temperatures. Data were analyzed using binomial probabilities.
Approximate levels of sweetness enhancement in column 5 of Table 2 were calculated as follows:
Approximate levels of sweetness enhancement=Sweetener concentration of positive control surpassed by the test sample, divided by sweetener concentration for compound-containing sample (e.g. 1.15×=5.75% sucrose/5% sucrose).

[2] = system: perception of the sweet taste in humans; test: Trained descriptive analysis (DA) panel, sweet attribute; settings: 35 ppm; for compound effects beyond the additive effect of inherent sweetness: 4% fructose and 8% sucrose; for perceived sweetness compared to control sweetener solutions (FIG. 2): aqueous fructose and sucrose solutions at pH 3; for perceived sweetness compared to control sweetener solutions (FIG. 2) / perceived sweetness compared to control sweetener solutions (FIG. 1): ** p<0.01; for perceived sweetness compared to control sweetener solutions (FIG. 1): aqueous fructose and sucrose solutions at pH 7
Description: The effect of the test compounds on the perception of the sweet taste in an aqueous environment, in the absence or presence of carbohydrate sweeteners, was evaluated using a descriptive analysis methodology with a group of trained panelists, as follows.
Candidate panelists were recruited, with prescreening and personal interviews, and were assessed for their ability to detect, recognize and differentiate basic taste attributes or mixtures thereof as part of a standardized acuity test. These candidate panelists were also assessed for their innate ability to identify flavors, and to rank on intensity scales. Other senses such as smell and vision were also included as part of the assessment. Candidates also were screened for their ability to use the language to describe and articulate ideas.
Selected candidates proceeded to training as a group in three phases: (1) Lexicon development, (2) Concept alignment, and (3) Scaling descriptors. During lexicon development, panelists evaluated products appropriate for use in the study to generate and align on terms describing the flavor, taste, aromatic, trigeminal, and temporal attributes. During concept alignment, the panel evaluated the products mentioned above to clarify and confirm the attributes that were generated during lexicon development using reference standards that appropriately define each attribute; these are either physical references (e.g. sucrose solutions) or verbal descriptions (e.g. overall flavor). Product terms and concepts were validated during this portion of the study.
In the last phase, scaling descriptors, the panel participated in a series of exercises focused on ordering and ranking samples according to relative attribute intensity, measuring attribute intensity using a defined length of line scale. Whenever possible, different levels or concentration of references were used as anchors to facilitate use of the scale. Panelists were provided with blinded references at this stage to evaluate their understanding and perception of the scale.
The panel used in this example was trained to reference sweet attributes in an absolute manner, such that a particular concentration of sweetener is always measured by the panelists at the same point using a 15 cm line scale where each cm represents a 1% increase in sucrose to cover the range of 0% to 15% sucrose. For the rest of the attributes, the panel was trained using a hybrid approach between descriptive analysis methods (e.g. quantitative descriptive analysis, the sensory spectrum, etc.) well-known to those skilled in the art.
The trained panel was then used for a descriptive analysis assessment for Compounds 1, 2 and 3 in aqueous solutions at pH 3 and pH 7. Each of the three compounds was tested at 35 ppm in sucrose and fructose sweeteners. In addition, Compounds 1, 2 and 3 were also examined in water at pH 3 and pH 7 to assess for any inherent sweetness.
The aqueous sweetener solutions were prepared by adding, fructose or sucrose (by weight), to water to achieve the desired concentration. Aqueous sucrose solutions at pH 3 were buffered using a final concentration of 0.096% Citric Acid plus 0.036% Sodium Citrate while aqueous fructose solutions at pH 3 were buffered using a final concentration of 0.06% Citric Acid and 0.0225% Sodium Citrate.
Compounds were first prepared as a […] concentrated stock solution in 100% ethanol. These concentrated stocks were then added to the aqueous sweetener solutions to result in a final ethanol concentration of 0.2%. In addition to compounds, a solubilizing agent at a final concentration of 0.02% was added to the aqueous sweetener solutions. Control samples were also balanced with 0.2% ethanol and in certain cases 0.02% solubilizing agent.
Both control (aqueous sweetener solutions without compound) and variant (aqueous sweetener solutions with compound) samples were blinded and randomized (by sweetener and pH blocks). […]

[3] = system: perception of the sweet taste of an aqueous solution of sweetener in humans; test: Ranking "sip and spit" assessment of sweetness perception (R index); settings: test sample 5% sucrose; compound 10 ppm; vs negative control; R index >=60 = significantly different
Description: The effect of the test compounds on the perception of the sweet taste of an aqueous solution of sweetener in humans was evaluated using a ranking “sip and spit” method.
as §1
Compounds were first prepared as a 500-fold concentrated stock solution in 100% ethanol. These concentrated stocks were then added to the aqueous sweetener solutions to result in a final ethanol concentration of 0.2%. The control (positive and negative) samples were also normalized to 0.2% ethanol.
In the ranking test used for compound evaluation, taste panelists (n=15), rank samples in increasing order of sweetness. One set, comprising of 6 samples, was presented to each panelists at a given time and are asked to rank them in order of increasing sweetness.
Panelists were instructed not to eat or drink (except water) for at least 1 h before the test. During the test, panelists were instructed to sip each sample, swirl it around their mouth and then expectorate. After tasting each set, panelists were instructed to rank the 6 samples within the set from least sweet to most sweet. Where rank 1—is lowest in sweetness and rank 6—is highest in sweetness. Panelists cleansed their palates by rinsing with water, eating a cracker and waiting for an interval of 10 minutes. […]

[4] = test sample 4% fructose, compound 25 ppm
[5] = test sample 4% fructose, positive control fructose, compound 25 ppm
[6] = test sample 4% fructose, positive control fructose, compound 20 ppm

## COc1ccc([C@@H]2CC(=O)c3c(O)cccc3O2)cc1O (single isomer, unassigned) [Compound 2]
[1]; [4]
  Fold increase in perceived sweetness: >1.20X
[1]; [5]
  Sweetener Concentration of positive control surpassed by test sample: > 4.8%
[1]; test sample 5% sucrose, compound 15, 25 ppm
  Fold increase in perceived sweetness: >1.20X
[1]; test sample 5% sucrose, positive control sucrose, compound 15, 25 ppm
  Sweetener Concentration of positive control surpassed by test sample: > 6%
[1]; test sample 6.5% glucose, compound 10, 20, 25 ppm
  Fold increase in perceived sweetness: >1.15X
[1]; test sample 6.5% glucose, positive control glucose, compound 10, 20, 25 ppm
  Sweetener Concentration of positive control surpassed by test sample: > 7.48%
[2]; pH 3, Table 7 vs Table 5
  compound effects beyond the additive effect of inherent sweetness: super-additive effects
[2]; pH 7, Table 6 vs Table 4
  compound effects beyond the additive effect of inherent sweetness: super-additive effects
[2]
  perceived sweetness compared to control sweetener solutions (FIG. 2): significant increase in perceived sweetness
  perceived sweetness compared to control sweetener solutions (FIG. 1): significant increase in perceived sweetness

## COc1ccc([C@H]2CC(=O)c3c(O)cccc3O2)cc1O (single isomer, unassigned) [Compound 3]
[1]; [4]
  Fold increase in perceived sweetness: >1.25X
[1]; [5]
  Sweetener Concentration of positive control surpassed by test sample: > 5%
[1]; test sample 5% sucrose, compound 15 ppm
  Fold increase in perceived sweetness: >1.20X
[1]; test sample 5% sucrose, positive control sucrose, compound 15 ppm
  Sweetener Concentration of positive control surpassed by test sample: > 6%
[1]; test sample 6.5% glucose, compound 25 ppm
  Fold increase in perceived sweetness: >1.20X
[1]; test sample 6.5% glucose, positive control glucose, compound 25 ppm
  Sweetener Concentration of positive control surpassed by test sample: > 7.8%
[2]; pH 3, Table 7 vs Table 5
  compound effects beyond the additive effect of inherent sweetness: super-additive effects
[2]; pH 7, Table 6 vs Table 4
  compound effects beyond the additive effect of inherent sweetness: super-additive effects
[2]
  perceived sweetness compared to control sweetener solutions (FIG. 2): significant increase in perceived sweetness
  perceived sweetness compared to control sweetener solutions (FIG. 1): significant increase in perceived sweetness

## COc1ccc(C2CC(=O)c3c(O)cc(OCCCC(=O)O)cc3O2)cc1O (centres unmarked) [Compound 4, 4-((5-hydroxy-2-(3-hydroxy-4-methoxyphenyl)-4-oxochroman-7-yl)oxy)butanoic acid]
[1]; [6]
  Sweetener Concentration of positive control surpassed by test sample: > 4.4%

## CCCOc1ccc(C2CC(=O)c3c(O)cc(O)cc3O2)cc1O (centres unmarked) [Compound 5, 5,7-dihydroxy-2-(3-hydroxy-4-propoxyphenyl)chroman-4-one]
[1]; [6]
  Sweetener Concentration of positive control surpassed by test sample: > 4.4%

## O=C1c2c(O)cc(O)cc2OC(c2ccc(O)c(O)c2)C1O (centres unmarked) [Compound 11, 2-(3,4-dihydroxyphenyl)-3,5,7-trihydroxychroman-4-one]
[3]
  R Index Score: 64

## COc1ccc(C2CC(=O)c3c(O)cc(OCCCS(=O)(=O)[O-])cc3O2)cc1O.[K+] (centres unmarked) [Compound 14, 3-((5-hydroxy-2-(3-hydroxy-4-methoxyphenyl)-4-oxochroman-7-yl)oxy)propane-1-sulfonic acid potassium salt]
[1]; test sample 4% fructose, compound 20 ppm
  Fold increase in perceived sweetness: >1.1X
[1]; [6]
  Sweetener Concentration of positive control surpassed by test sample: > 4.4%

## COc1ccc(C2CC(=O)c3c(O)cc(F)cc3O2)cc1O (centres unmarked) [Compound 15, 7-fluoro-5-hydroxy-2-(3-hydroxy-4-methoxyphenyl)chroman-4-one]
[1]; [6]
  Sweetener Concentration of positive control surpassed by test sample: > 4.4%
